For assay [1], the system named is RNVCs. In words: Mitochondrial network and cell volume by confocal microscopy (Mitotracker, calcein-AM, IMARIS). Type of assay: cell-based, rat. Conditions: 1 and 10 μM, 6 h. Here is the method:
FIG. 6. Effects on mitochondrial dynamics by fluorescence microscopy The RNVCs were treated with 1 μM hits (FIG. 6A) and 10 μM hits (FIG. 6B) for 6 h and the mitochondrial network was stained with 200 nM of Mitotracker. The mitochondrial network and individual mitochondria were then analyzed using a Leica confocal microscope and IMARIS software. Data are presented as mean±SEM with single-factor ANOVA, and multiple Sidak comparisons. *, p<0.05, **, p<0.01, ***, p<0.001 with respect to DMSO.
FIG. 11: following the treatment of the RNVCs with the compounds as indicated, the cell volume was stained with 4 μM of calcein-AM. The cell volume was then analyzed using the IMARIS software.
Confocal microscopy. On day 0, 4×10^5 neonatal cardiomyocytes were plated overnight on laminin-coated 35 mm culture dishes (10 μg/ml). On day 1, the cells were treated with various compounds at 1 or 10 μM for 6 hours. The cells were incubated with Mitotracker Red 580 at 200 nM for 20 minutes at 37° C., then 4 μM of calcein (Calcein AM, Life Technologies, St Aubin, France) for 10 minutes at 37° C. The images were acquired with a Leica confocal microscope (SP5) (Mannheim, Germany). The mitochondrial network and the 3D model of cell volume were reconstructed using the IMARIS software (Bitplane Company, Zurich, Switzerland); therefore the cell volume, mitochondrial number and volume were analyzed.
Due to the importance of mitochondria and reactive oxygen species (ROS) levels in the fate of cardiomyocyte cells, the hypothesis that the compounds could impact the mitochondrial network was explored. Following treatment of the RNVCs with the compounds tested, the mitochondrial network was stained with 200 nM of Mitotracker and the cell volume with 4 μM of calcein-AM. Thus, the mitochondrial network and the individual mitochondria were then analyzed using the IMARIS software.

In assay [2] the test system is A549 lung cancer cell line. The assay can be described thus: Influence of hits on growth of A549 cancer cells (total LDH after lysis). Type of assay: cell-based. To be noted: 48 h. Here is the method: The cells were cultured for 6 h in the presence or absence of the hits, and then for 42 h. Finally, the cells were lysed with lysis buffer and the amount of LDH was measured to evaluate the total cell growth.
A colorimetric assay was used to measure lactate dehydrogenase (LDH), a cytosolic enzyme which is released during permeabilization of the plasma membrane (Promega G1780). The assay was performed using cell culture supernatants obtained from H9C2 or RNVC (rat neonatal ventricular myocyte) cells and lysis buffer (LB) was used as a positive control for total cell lysis. The LDH release was measured by absorbance reading at 490 nm (Infinite spectrofluorimeter, Tecan).
The effect of the compounds was then evaluated on primary rat neonatal ventricular cardiomyocytes (RNVCs) using the LDH test and propidium iodide staining. […] The absence of proliferative effects of the compounds was also evaluated on the A549 lung cancer cell line for 48 h (FIG. 2C).

The subject of assay [3] is H9C2 cells. The assay can be described thus: Seahorse XF Cell Mito stress test (OCR). Type of assay: cell-based, rat. Here is the method:
FIG. 8B: the H9c2 cells were treated with the compounds for 6 h, then a mitochondrial respiration stress test was carried out.
The XFe96 extracellular flow analyzer (Seahorse Biosciences, North Billerica, MA, USA) was used to measure the bioenergetic function of H9C2 cardiomyocytes. The H9C2 cells were seeded at 20 000 cells per well in XF96 cell culture microplates; all the pretreatments were carried out with serum-free cell culture medium. The Agilent Seahorse XF glycolysis stress test was performed to measure glycolytic function in the H9C2 cells; the extracellular acidification rate (ECAR) was measured sequentially by 3 injections, 10 mM glucose, 2 μM oligomycin and 50 mM 2-deoxy-D-glucose (2-DG). The Agilent Seahorse XF Cell Mito stress test measured key parameters of mitochondrial function by directly measuring the oxygen consumption rate (OCR) of the H9C2 cells. The test used the built-in injection ports on XF sensor cartridges to add respiration modulators into the cell well during the test in order to reveal key parameters of mitochondrial function. Oligomycin at 2 μM was injected first after the baseline measurements. Then 1 μM of […] (FCCP) was injected. The third injection corresponds to 0.5 μM of antimycin A, to stop mitochondrial respiration. The oxidation of the exogenous fatty acids was measured simultaneously using the XF palmitate-BSA FAO substrate kit with the mitochondrial stress test on XF cells. The substrate-limited medium is DMEM with 0.5 mM glucose, 1 mM GlutaMAX, 0.5 mM carnitine and 1% fetal calf serum. Carnitine was added freshly on the day of the change of medium. The FAO test medium contains 111 mM NaCl, 4.7 mM KCl, 1.25 mM CaCl2, 2 mM MgSO4, 1.2 mM NaH2PO4, supplemented with 2.5 mM glucose, 0.5 mM carnitine and 5 mM HEPES on the day of the test, adjusted to pH 7.4 at 37° C. The H9C2 cells were seeded at 20 000 cells per well in XF96 cell culture microplates. […]
Next, the energy metabolism was analyzed in real time using the Seahorse technology in H9C2 cells.

For `O=C1NC(c2ccccc2)=N/C1=C\c1cc2ccccc2c2ccccc12` [SG6163F], in assay [1], the number of mitochondria entry is given as “increased” and the “total mitochondrial volume per cell” value was “increased”. In addition, the “effect on A549 cell growth” value in assay [2] was “no proliferative effect”. The OXPHOS result in assay [3] (independently of the substrates) is on record as “boost OXPHOS”.
For `C[C@]12CC[C@H](O)C[C@H]1CC[C@@H]1[C@@H]2CC[C@]2(C)[C@@H](C3=CC(=O)OC3)CC[C@]12O` [digitoxigenin], in assay [1], the number of mitochondria result is on record as “increased” and the “total mitochondrial volume per cell” value was “increased”. Moreover, the “effect on A549 cell growth” value in assay [2] was “significantly reduced cell growth and induced cell death”. Besides, the “ATP production by oxidative phosphorylation (OXPHOS)” value in assay [3] (glucose and pyruvate as substrates, 6 h) is “improved ATP production by oxidative phosphorylation”.
`C[C@H]1O[C@@H](O[C@H]2[C@@H](O)C[C@H](O[C@H]3[C@@H](O)CC(O[C@H]4CC[C@@]5(C)[C@H](CC[C@@H]6[C@@H]5C[C@@H](O)[C@]5(C)[C@@H](C7=CC(=O)OC7)CC[C@]65O)C4)O[C@@H]3C)O[C@@H]2C)C[C@H](O)[C@@H]1O` (some centres unmarked) [digoxin]: in assay [1], the number of mitochondria result was “increased” and the “total mitochondrial volume per cell” value is recorded as “increased”. Further, in assay [2], the “effect on A549 cell growth” value was “significantly reduced cell growth and induced cell death”.

The values above are taken from US20240226066A1, “CARDIOPROTECTION BY AUTOPHAGY INDUCTION AND METABOLIC REPROGRAMMING” (UNIVERSITE PARIS-SACLAY, priority 2021, published 2024).
